One block for each compound: values may come before it. Calls of active or inactive are those of the source.
Experiments:
[1] = biological target: Ras and Rab interactor 1/Tyrosine-protein kinase ABL1 (Homo sapiens, UniProt P00519+Q13671); format: functional;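 also: biochemical TR-FRET dose-response test measuring inhibition of binding between Rin1 and Abl proteins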
[2] = biological target: T1, Polyadenylate-binding protein 1 (Homo sapiens, UniProt P11940); assay: MLLE domain peptide-binding blockers, IC50 – biochemical, fluorescence polarization, FITC-PAM2 peptide, dose response (AID 602259); format: functional; conditions: read-out: IC50_Mean
T1 sequence (P11940 whole entry, the tested form may be a part): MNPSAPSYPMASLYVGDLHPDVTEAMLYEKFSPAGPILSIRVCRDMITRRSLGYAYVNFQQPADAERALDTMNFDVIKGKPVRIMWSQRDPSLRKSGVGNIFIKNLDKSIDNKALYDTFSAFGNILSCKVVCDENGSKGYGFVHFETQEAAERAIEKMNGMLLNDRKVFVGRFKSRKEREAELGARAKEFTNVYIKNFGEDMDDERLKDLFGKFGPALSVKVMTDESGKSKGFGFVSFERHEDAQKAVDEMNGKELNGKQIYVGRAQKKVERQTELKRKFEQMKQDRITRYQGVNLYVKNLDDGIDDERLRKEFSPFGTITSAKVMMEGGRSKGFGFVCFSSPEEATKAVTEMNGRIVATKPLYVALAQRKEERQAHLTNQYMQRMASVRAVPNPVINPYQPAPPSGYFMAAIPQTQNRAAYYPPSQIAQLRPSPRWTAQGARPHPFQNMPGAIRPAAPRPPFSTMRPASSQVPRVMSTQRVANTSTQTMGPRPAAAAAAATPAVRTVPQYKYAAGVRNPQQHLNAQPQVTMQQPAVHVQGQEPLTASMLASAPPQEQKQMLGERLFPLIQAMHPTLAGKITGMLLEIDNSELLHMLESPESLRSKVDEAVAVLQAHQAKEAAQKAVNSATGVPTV

[3] = biological target: T1, Polyadenylate-binding protein 1; assay: MLLE binding blockers, Cy5 peptide tracer – biochemical, fluorescence polarization, Cy5-PAM2 peptide, secondary, miRNA deadenylation inhibitor project, dose response (AID 602260); format: functional; conditions: read-out: IC50_Mean
[4] = biological target: T2, Oxysterols receptor LXR-beta (Homo sapiens, UniProt P55055); format: functional, cell-based;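 also: agonist activity at LXR measured by a cell-based luminescence readout across a dose range, run as a counterscreen for daf-12 agonists; HEK293 cells with Gal4-LXR fusion and GAL4-driven luciferase reporter; potency for activation of Gal4-LXR reporter so compounds are agonists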
T2 sequence (P55055 whole entry): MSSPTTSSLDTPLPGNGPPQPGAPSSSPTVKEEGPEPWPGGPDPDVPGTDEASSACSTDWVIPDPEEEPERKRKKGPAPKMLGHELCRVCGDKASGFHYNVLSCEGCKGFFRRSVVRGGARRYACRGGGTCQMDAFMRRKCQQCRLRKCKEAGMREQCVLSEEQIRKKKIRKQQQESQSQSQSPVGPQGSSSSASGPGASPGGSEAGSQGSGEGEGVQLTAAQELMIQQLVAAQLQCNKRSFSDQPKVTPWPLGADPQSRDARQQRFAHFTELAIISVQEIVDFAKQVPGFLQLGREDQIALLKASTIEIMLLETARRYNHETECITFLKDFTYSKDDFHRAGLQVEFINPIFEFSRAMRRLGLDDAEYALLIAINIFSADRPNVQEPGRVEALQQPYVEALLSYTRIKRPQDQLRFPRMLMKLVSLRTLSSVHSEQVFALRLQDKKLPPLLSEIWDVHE

[5] = biological target: Dual specificity protein phosphatase 3 (Homo sapiens, UniProt P51452); assay: VHR phosphatase inhibition, dose response, selectivity assay for STEP inhibitor project, biochemical (AID 602374); format: functional; conditions: read-out: IC50_Mean
[6] = biological target: Tyrosine-protein phosphatase non-receptor type 11 (Homo sapiens, UniProt Q06124); assay: PTPN11 enzyme inhibitors – biochemical, selectivity assay for STEP inhibitor project, dose response (AID 602367); format: functional; conditions: read-out: IC50_Mean
[7] = biological target: Tyrosine-protein phosphatase non-receptor type 5 (Homo sapiens, UniProt P54829); assay: PTPN5 enzyme inhibition – biochemical, fluorescence intensity, uHTS hits, confirmation (AID 602372); format: functional; conditions: read-out: IC50_Mean
Protein skinhead-1 = biological target: T3, Protein skinhead-1 (Caenorhabditis elegans, UniProt P34707); format: functional
T3 sequence (P34707 whole entry): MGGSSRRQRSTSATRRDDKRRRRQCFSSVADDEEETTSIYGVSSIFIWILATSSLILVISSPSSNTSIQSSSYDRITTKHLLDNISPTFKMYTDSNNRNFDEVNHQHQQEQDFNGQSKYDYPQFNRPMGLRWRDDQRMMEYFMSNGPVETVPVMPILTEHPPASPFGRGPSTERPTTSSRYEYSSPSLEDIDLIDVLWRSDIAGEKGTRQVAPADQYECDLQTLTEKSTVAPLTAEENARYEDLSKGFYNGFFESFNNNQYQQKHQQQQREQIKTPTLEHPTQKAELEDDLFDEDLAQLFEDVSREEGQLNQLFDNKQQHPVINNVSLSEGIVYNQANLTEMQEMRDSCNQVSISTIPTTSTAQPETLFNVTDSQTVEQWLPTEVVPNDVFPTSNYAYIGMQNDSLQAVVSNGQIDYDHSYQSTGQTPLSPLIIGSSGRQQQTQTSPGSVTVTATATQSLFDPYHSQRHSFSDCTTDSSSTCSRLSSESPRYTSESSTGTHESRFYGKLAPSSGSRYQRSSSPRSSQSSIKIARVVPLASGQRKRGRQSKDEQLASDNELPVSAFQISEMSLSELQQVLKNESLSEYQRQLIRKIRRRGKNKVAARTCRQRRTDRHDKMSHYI

cells = format: functional, cell-based
[8] = biological target: T4, Nuclear receptor subfamily 0 group B member 1 (Homo sapiens, UniProt P51843); format: functional, cell-based;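 also: HEK293T cells transfected with SF-1 and DAX-1 plus StAR promoter luciferase reporter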
T4 sequence (P51843 whole entry): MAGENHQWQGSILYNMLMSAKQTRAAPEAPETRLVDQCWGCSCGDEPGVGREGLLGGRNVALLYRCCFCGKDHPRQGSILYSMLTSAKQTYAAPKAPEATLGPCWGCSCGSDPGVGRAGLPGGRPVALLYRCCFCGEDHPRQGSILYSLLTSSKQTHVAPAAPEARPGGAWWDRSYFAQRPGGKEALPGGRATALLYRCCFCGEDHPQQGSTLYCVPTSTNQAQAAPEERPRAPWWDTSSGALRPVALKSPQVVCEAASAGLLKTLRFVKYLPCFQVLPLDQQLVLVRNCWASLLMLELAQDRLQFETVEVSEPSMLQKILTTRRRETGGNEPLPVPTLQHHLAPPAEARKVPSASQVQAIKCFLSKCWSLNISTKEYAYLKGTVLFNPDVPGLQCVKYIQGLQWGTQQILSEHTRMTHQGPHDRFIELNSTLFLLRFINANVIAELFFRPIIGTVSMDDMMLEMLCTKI

[9] = biological target: DNA (cytosine-5)-methyltransferase 1 (Homo sapiens, UniProt P26358); assay: inhibition of DNA methylation by DNMT1 – biochemical, fluorescent molecular beacon, confirmation (AID 602386); format: functional
Sequence of DNA (cytosine-5)-methyltransferase 1 (P26358 whole entry): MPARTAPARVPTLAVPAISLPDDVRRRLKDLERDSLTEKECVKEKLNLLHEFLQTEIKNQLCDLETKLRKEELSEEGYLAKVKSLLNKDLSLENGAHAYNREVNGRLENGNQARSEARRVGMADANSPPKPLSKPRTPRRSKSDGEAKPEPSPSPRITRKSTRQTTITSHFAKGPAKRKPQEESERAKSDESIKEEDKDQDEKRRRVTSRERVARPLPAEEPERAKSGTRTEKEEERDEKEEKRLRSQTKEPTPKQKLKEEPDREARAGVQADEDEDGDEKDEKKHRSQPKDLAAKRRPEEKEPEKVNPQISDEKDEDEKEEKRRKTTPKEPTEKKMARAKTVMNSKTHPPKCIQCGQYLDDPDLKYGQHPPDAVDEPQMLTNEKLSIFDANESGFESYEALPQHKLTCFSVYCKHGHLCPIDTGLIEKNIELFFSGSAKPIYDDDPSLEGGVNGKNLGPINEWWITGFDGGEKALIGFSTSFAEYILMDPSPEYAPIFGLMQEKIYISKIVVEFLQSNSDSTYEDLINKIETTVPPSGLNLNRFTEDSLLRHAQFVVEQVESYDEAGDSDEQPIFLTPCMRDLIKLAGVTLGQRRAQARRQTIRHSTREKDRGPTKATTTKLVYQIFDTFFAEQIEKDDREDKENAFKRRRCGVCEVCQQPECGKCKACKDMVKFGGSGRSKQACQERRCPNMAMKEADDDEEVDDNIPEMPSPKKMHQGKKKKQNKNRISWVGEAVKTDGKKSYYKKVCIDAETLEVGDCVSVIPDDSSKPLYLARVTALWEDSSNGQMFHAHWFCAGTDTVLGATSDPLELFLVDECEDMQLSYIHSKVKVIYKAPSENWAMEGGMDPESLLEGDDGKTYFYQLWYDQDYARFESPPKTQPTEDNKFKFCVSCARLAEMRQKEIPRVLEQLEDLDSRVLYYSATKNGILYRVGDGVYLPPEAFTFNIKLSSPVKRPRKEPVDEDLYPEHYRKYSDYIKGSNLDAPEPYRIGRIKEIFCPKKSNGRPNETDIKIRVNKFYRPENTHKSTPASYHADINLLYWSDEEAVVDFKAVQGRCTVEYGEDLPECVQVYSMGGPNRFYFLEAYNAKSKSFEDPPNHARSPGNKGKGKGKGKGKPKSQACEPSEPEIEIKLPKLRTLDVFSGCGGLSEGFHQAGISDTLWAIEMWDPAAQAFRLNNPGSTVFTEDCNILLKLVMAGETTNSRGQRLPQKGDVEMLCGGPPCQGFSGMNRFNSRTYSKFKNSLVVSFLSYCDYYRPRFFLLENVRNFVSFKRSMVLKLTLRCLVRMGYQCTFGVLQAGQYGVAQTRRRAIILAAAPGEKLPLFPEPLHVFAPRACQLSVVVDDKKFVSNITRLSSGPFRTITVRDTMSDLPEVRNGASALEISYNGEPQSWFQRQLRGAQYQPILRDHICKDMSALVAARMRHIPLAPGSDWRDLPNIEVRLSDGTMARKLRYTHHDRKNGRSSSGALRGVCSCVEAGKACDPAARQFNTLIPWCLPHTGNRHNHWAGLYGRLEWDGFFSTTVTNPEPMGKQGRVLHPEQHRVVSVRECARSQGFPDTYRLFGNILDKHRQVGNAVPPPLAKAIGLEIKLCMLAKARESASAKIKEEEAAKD

Genome polyprotein = Genome polyprotein (dengue virus type 2, UniProt P29990); assay: flavivirus cap methylation enzyme inhibition – biochemical, confirmation dose response, primary screen (AID 588689); format: functional
Sequence of Genome polyprotein (P29990 2492-3391 limits assumed): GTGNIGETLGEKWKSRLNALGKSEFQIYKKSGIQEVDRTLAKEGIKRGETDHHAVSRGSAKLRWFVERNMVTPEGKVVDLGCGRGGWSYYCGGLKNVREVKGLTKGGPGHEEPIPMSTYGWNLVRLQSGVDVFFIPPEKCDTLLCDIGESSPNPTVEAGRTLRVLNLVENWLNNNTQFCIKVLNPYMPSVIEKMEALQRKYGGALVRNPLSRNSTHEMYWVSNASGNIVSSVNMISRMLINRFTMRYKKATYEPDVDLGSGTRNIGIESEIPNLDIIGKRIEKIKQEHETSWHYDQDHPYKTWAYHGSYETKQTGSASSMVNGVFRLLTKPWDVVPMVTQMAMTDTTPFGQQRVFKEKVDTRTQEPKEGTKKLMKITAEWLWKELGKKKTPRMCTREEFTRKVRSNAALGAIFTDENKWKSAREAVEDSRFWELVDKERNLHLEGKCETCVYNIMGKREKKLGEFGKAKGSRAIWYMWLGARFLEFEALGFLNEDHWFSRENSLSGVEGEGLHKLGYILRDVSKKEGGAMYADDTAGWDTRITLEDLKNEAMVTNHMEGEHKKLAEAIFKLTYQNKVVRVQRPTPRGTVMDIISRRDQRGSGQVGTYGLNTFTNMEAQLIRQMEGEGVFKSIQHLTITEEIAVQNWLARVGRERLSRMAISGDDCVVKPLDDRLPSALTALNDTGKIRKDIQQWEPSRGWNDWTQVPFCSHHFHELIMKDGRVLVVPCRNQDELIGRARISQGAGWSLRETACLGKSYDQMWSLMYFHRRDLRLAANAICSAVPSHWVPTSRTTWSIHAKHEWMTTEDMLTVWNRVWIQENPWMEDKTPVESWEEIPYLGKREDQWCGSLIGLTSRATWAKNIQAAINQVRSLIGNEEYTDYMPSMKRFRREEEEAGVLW

[10] = viability loss in THP-1 monocytes – THP-1 cells, cytotoxicity control for Vif-APOBEC3G degradation inhibitor project, dose response (AID 1117359); format: functional; conditions: THP-1
Aurora kinase A = biological target: T5, Aurora kinase A (Homo sapiens, UniProt O14965); format: functional;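 also: value from the Navigating the Kinome kinase panel profiling, panel entry STK6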
T5 sequence (O14965 whole entry): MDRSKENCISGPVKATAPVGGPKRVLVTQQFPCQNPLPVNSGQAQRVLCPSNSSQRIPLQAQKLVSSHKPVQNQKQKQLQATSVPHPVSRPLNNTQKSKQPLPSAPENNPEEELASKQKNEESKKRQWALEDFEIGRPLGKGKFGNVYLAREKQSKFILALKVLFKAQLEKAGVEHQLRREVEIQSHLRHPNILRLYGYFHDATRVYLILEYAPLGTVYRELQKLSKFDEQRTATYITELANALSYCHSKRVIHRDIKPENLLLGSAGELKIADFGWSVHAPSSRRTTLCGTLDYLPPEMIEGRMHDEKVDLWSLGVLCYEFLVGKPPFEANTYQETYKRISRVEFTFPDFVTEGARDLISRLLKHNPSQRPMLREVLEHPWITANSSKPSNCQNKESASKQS

Aurora kinase B = Aurora kinase B (Homo sapiens, UniProt Q96GD4); format: functional
[11] = biological target: Vascular endothelial growth factor receptor 2 (Homo sapiens, UniProt P35968); format: functional
[12] = activation of miR-122 Renilla sensor silencing – cell-based, Huh7 psiCHECK-miR122, Renilla luciferase, cherry-picked, dose response (AID 651956); format: functional;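 also: huh7 hepatoma cells stably carrying a psiCHECK-2 miR-122 sensor plasmid; renilla luciferase signal reporting endogenous miR-122 activity after 48 h compound exposure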
[13] = blockers of HIV-1 envelope-mediated cell-cell fusion – cherry-pick, dose response (AID 652057); format: functional, cell-based
[14] = HIV-1 AD8 envelope cell-cell fusion blockers – cherry-pick, dose response (AID 652062); format: functional, cell-based;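 also: luciferase signal from cell-cell fusion driven by HIV-1 clade B AD8 Env; potency is for inhibitors of fusion seen as a drop in luminescence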
[15] = viability loss in CEM21 cells – cell-based, CellTiter-Glo luminescence, cherry-picked, cytotoxicity control for viral fusion inhibitor project, dose response (AID 652042); format: functional;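 also: potency for signal decrease meaning cytotoxicity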
[16] = biological target: Protein disulfide-isomerase (Homo sapiens, UniProt P07237); assay: inhibition of PDI-mediated insulin reduction – biochemical, turbidity, dry powder samples, set 2, confirmation (AID 652146)

Sequence of Ras and Rab interactor 1/Tyrosine-protein kinase ABL1 (P00519 whole entry, the tested form may be a part): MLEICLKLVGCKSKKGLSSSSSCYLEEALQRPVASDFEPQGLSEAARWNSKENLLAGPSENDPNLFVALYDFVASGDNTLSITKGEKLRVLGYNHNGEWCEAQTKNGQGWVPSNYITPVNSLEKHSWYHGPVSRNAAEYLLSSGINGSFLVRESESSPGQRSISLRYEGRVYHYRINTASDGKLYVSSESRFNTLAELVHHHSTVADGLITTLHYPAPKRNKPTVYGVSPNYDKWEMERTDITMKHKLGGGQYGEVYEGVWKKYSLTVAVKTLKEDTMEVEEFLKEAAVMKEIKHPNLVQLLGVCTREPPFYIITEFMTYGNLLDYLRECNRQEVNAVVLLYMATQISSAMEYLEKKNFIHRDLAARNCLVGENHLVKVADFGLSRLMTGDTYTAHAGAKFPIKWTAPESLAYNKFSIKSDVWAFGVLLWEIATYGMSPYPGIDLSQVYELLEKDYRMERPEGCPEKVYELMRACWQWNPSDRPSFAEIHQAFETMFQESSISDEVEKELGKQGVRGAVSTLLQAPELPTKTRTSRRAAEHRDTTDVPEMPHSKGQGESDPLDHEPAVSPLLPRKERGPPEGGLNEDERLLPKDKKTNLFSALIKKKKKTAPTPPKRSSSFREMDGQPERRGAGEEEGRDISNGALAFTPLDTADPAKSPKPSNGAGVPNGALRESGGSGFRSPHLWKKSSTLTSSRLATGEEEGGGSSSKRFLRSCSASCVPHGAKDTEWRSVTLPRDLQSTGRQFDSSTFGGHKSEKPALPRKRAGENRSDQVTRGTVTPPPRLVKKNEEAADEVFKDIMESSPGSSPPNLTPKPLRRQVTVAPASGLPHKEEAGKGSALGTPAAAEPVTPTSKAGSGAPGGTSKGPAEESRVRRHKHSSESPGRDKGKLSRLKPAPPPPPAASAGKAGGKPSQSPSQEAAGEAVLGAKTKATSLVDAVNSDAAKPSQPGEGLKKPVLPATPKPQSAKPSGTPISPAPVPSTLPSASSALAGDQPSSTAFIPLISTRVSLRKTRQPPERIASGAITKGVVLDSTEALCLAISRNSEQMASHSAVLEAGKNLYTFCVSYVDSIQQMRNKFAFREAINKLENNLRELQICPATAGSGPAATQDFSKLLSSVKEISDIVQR
Sequence of Ras and Rab interactor 1/Tyrosine-protein kinase ABL1 (Q13671 whole entry, the tested form may be a part): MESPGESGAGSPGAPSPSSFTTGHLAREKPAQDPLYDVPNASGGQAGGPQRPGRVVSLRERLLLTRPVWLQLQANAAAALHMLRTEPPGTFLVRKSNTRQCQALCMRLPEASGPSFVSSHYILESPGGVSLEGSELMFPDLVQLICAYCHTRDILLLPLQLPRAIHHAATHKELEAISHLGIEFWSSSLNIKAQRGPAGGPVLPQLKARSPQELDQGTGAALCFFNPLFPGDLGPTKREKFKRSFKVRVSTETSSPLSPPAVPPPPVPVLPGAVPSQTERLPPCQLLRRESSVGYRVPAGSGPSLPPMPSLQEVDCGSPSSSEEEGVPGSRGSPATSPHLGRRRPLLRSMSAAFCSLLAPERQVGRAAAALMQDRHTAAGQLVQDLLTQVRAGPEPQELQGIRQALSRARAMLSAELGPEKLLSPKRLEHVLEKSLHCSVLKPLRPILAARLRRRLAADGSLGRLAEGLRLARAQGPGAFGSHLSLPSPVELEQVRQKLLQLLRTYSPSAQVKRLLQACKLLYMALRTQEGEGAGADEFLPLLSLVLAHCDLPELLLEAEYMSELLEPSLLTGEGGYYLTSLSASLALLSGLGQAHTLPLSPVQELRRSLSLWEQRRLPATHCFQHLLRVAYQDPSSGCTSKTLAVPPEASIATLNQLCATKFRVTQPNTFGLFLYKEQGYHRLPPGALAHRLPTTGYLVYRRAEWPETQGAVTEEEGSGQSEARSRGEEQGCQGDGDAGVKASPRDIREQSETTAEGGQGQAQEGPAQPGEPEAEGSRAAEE

Compound: COC(=O)C1CCC(=O)N1C(c1ccc(OC)cc1)c1cc(OC)c(OC)c(OC)c1 (stereo not drawn)
IC50 (cells): > 67.5 µM (inactive)
IC50 [8]: > 67.5 µM (inactive)

Compound: O=C1C=C(N2CC2)c2ccccc2C1=O
IC50 [9]: 1.87 µM (active)
IC50 (Genome polyprotein): 29.7 µM (active)
CC50 [10]: 32.7 µM (active)
IC50 (Protein skinhead-1): > 100 µM (inactive)

Compound: CCNC(=O)C[C@@H]1CC[C@@H]2[C@@H](COc3ccc(NC(=O)C4CCCCC4)cc3C(=O)N2C)O1
AC50 [12]: 33.4 µM (active)

Compound: C[C@H](CO)N1C[C@H](C)[C@H](CN(C)S(=O)(=O)c2ccccc2)Oc2ccc(NC(=O)Nc3ccc4c(c3)OCO4)cc2CC1=O
AC50 [13]: < 0.26 µM (active)
AC50 [14]: 1.15 µM (active)
AC50 [15]: 58.4 µM (active)

The next lines start with the values.

IC50 [1]: 1.45 µM (active)
IC50 [2]: > 66 µM (inactive)
IC50 [3]: > 66 µM (inactive)
Compound: CCOC(=O)CCCCC(=O)c1[nH]c(O)nc1CSc1nc(O)c(C#N)c(-c2ccccc2)n1

EC50 [4]: > 67.1 µM (inactive)
Compound: c1ccc([C@H]2CN3C(=N2)Sc2ccccc23)cc1

IC50 [1]: 1.86 µM (active)
Compound: CCOC(=O)CCCCC(=O)c1[nH]c(O)nc1Cn1cnc2ccccc21

IC50 [5]: 1.62 µM (active)
IC50 [6]: 8.43 µM (active)
IC50 [7]: 23.2 µM (inactive)
IC50 (Protein skinhead-1): > 100 µM (inactive)
Compound: COc1cccc(-c2cc(C(=O)Nc3nc4ccccc4s3)c3ccccc3n2)c1

Ki (Aurora kinase A): > 2 µM (inactive)
Ki (Aurora kinase B): > 2.51 µM (inactive)
Ki [11]: 0.0794 µM (active)
Compound: O=C1Nc2ccccc2Nc2cc(-c3ccccc3O)ccc21

AC50 [16]: > 30 µM (inactive)
Compound: CCOC(=O)C1(CCOC)CCCN(Cc2ccc(Cl)cc2)C1 (stereo not drawn)

Source: ChEMBL document CHEMBL1201862, “PubChem BioAssay data set” (2004)
